Laboratory results reported in ChEMBL document CHEMBL1201862, “PubChem BioAssay data set” (2004).
The source made the active and inactive calls.

Tests used:
Cytochrome P450 2C9 = Cytochrome P450 2C9 (Homo sapiens, UniProt P11712)
Cytochrome P450 2D6 = Cytochrome P450 2D6 (Homo sapiens, UniProt P10635);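 note: CYP2D6 member of a cytochrome P450 panel assay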
HEK293 = test: inhibitors of LMP1-driven NF-kB reporter, dose response, cell-based, HEK293, luciferase, cherry-pick (AID 588343); type: functional; settings: Homo sapiens
[1] = inhibitors of intracellular T. cruzi replication, confirmation, NIH3T3 host cells, beta-gal luminescence (AID 2044); type: functional, cell-based;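 note: intracellular parasites grown in NIH/3T3 mouse fibroblasts as host cells; luminescent beta-galactosidase reporter signal from transgenic T. cruzi replicating inside host cells; inhibitors lower the luminescence signal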
[2] = cytotoxicity toward NIH3T3 fibroblasts, dose response, counter-screen, cell-based, ATP luminescence, mouse fibroblasts (AID 2010); type: functional;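 note: cells exposed to compound for about 90 hours before reading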
INS1 = test: beta cell apoptosis inhibitors, cytokine rescue, dose response, luminescence, retest (AID 449756); type: functional, cell-based; settings: Rattus norvegicus;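 note: cell death triggered by IL-1 beta plus TNF-alpha plus IFN-gamma mixture; protective hits raise ATP signal compared with cytokine alone wells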
H9c2 = test: cells; type: functional, cell-based; settings: Rattus norvegicus, H9c2, Myocardium;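 note: confirmatory concentration-response retest of ultra-high-throughput screening hits for modulation of myocardial damage; cell death induced by hydrogen peroxide oxidative stress; compound pretreatment for 60 min then peroxide exposure for 2 h; potency is for protecting the cells against peroxide damage rather than for killing them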
[3] = Luminescence Cell-Based Dose Retest to Confirm Inhibitors of Cancer Stem Cells. [Related pubchem assays (depositor defined):AID2717, AID2721]; type: functional; settings: Homo sapiens
Vero = test: cells; type: functional; settings: Chlorocebus sabaeus
Cytochrome P450 3A4 = Cytochrome P450 3A4 (Homo sapiens, UniProt P08684);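 note: CYP3A4 tested as one member of a cytochrome P450 panel screen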
Chain of Cytochrome P450 3A4 (P08684 whole entry): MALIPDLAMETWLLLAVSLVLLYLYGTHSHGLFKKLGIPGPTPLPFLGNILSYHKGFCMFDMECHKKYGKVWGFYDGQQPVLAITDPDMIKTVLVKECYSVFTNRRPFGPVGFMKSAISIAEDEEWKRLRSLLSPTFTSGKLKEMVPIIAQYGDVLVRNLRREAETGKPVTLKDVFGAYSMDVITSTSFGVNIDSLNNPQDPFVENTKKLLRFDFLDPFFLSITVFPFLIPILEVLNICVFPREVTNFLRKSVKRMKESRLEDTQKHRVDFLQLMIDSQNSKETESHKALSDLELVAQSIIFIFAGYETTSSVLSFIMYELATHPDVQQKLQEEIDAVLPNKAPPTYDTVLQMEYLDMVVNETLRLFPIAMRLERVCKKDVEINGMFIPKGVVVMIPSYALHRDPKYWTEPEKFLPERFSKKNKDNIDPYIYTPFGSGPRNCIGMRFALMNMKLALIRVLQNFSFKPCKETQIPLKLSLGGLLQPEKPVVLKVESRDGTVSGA

[4] = Luminescence Cell-Based Dose Response to Identify Activators of 5'UTR Stem-Loop Driven Prion Protein mRNA Translation in H4-C Neuroglioblastoma Cells. [Related pubchem assays: 1829 (Project Summary), 1814 (Primary HTS)]; type: functional
[5] = molecular target: T1, Sentrin-specific protease 7 (Homo sapiens, UniProt Q9BQF6); type: functional;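 note: Luminescence-based dose-response confirmation of ultra-high-throughput screening hits, measuring inhibition of SENP7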
T1 sequence (Q9BQF6 whole entry): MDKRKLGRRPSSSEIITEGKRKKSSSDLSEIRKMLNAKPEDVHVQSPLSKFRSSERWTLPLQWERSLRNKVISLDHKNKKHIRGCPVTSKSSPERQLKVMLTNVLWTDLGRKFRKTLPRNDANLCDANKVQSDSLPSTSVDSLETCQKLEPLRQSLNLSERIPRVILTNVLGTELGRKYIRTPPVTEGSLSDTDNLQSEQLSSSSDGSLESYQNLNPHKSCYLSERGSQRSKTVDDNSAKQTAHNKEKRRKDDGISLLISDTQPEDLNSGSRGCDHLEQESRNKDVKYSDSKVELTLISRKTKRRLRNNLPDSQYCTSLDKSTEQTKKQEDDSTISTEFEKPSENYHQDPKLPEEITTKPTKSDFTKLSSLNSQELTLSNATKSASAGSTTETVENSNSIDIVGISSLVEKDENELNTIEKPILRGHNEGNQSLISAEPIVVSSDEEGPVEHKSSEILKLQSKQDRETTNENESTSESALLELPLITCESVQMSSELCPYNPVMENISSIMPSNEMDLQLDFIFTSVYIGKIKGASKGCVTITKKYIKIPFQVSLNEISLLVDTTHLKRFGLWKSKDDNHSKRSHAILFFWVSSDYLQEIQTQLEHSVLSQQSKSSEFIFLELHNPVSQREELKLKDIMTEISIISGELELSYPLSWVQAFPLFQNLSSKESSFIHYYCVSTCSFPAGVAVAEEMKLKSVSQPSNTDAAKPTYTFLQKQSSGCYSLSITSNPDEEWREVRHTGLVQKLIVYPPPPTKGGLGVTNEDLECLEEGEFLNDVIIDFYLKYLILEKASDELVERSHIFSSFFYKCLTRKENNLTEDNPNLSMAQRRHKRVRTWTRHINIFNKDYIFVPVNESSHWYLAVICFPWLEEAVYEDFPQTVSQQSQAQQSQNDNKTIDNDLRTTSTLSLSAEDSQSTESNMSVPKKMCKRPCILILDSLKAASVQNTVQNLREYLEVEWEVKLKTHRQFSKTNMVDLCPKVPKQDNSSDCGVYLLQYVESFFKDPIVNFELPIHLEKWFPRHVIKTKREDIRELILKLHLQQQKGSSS

H4 = test: Luminescence Cell-Based Dose Response HTS to Identify Activators of 5'UTR Stem-Loop Driven Prion Protein mRNA Translation in H4 Neuroglioblastoma Cells. [Related pubchem assays: 1829 (Project Summary), 1814 (Primary HTS)]; type: functional; settings: Homo sapiens
Streptococcus = test: Group A Streptococcus viability loss, dose response, counter-screen for streptokinase expression inhibitor project, luminescence, BacTiterGlo (AID 1915); type: functional, organism-based;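 note: potency for reduction of bacterial viability or growth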
[6] = molecular target: Induced myeloid leukemia cell differentiation protein Mcl-1 (Homo sapiens, UniProt Q07820); type: functional
Chain of Induced myeloid leukemia cell differentiation protein Mcl-1 (Q07820 whole entry, the tested form may be a part): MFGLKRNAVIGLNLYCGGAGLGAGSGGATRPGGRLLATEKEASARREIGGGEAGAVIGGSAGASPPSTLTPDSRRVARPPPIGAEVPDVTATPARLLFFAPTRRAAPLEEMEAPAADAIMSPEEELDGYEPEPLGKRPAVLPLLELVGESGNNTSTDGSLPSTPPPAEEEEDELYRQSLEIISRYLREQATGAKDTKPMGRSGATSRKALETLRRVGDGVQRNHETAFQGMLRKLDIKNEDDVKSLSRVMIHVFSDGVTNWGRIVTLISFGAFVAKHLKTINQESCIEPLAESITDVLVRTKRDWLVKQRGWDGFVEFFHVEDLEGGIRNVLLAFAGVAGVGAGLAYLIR

Fatty acid synthase [7] = molecular target: T2, Fatty acid synthase (Homo sapiens, UniProt P49327); test: FAS thioesterase domain inhibitors, dose response, biochemical, kinetic fluorescence intensity (AID 624326); type: functional;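 note: rate of fluorescence rise from hydrolysis of a fluorogenic O-methyl fluorescein ester substrate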
T2 sequence (P49327 whole entry, the tested form may be a part): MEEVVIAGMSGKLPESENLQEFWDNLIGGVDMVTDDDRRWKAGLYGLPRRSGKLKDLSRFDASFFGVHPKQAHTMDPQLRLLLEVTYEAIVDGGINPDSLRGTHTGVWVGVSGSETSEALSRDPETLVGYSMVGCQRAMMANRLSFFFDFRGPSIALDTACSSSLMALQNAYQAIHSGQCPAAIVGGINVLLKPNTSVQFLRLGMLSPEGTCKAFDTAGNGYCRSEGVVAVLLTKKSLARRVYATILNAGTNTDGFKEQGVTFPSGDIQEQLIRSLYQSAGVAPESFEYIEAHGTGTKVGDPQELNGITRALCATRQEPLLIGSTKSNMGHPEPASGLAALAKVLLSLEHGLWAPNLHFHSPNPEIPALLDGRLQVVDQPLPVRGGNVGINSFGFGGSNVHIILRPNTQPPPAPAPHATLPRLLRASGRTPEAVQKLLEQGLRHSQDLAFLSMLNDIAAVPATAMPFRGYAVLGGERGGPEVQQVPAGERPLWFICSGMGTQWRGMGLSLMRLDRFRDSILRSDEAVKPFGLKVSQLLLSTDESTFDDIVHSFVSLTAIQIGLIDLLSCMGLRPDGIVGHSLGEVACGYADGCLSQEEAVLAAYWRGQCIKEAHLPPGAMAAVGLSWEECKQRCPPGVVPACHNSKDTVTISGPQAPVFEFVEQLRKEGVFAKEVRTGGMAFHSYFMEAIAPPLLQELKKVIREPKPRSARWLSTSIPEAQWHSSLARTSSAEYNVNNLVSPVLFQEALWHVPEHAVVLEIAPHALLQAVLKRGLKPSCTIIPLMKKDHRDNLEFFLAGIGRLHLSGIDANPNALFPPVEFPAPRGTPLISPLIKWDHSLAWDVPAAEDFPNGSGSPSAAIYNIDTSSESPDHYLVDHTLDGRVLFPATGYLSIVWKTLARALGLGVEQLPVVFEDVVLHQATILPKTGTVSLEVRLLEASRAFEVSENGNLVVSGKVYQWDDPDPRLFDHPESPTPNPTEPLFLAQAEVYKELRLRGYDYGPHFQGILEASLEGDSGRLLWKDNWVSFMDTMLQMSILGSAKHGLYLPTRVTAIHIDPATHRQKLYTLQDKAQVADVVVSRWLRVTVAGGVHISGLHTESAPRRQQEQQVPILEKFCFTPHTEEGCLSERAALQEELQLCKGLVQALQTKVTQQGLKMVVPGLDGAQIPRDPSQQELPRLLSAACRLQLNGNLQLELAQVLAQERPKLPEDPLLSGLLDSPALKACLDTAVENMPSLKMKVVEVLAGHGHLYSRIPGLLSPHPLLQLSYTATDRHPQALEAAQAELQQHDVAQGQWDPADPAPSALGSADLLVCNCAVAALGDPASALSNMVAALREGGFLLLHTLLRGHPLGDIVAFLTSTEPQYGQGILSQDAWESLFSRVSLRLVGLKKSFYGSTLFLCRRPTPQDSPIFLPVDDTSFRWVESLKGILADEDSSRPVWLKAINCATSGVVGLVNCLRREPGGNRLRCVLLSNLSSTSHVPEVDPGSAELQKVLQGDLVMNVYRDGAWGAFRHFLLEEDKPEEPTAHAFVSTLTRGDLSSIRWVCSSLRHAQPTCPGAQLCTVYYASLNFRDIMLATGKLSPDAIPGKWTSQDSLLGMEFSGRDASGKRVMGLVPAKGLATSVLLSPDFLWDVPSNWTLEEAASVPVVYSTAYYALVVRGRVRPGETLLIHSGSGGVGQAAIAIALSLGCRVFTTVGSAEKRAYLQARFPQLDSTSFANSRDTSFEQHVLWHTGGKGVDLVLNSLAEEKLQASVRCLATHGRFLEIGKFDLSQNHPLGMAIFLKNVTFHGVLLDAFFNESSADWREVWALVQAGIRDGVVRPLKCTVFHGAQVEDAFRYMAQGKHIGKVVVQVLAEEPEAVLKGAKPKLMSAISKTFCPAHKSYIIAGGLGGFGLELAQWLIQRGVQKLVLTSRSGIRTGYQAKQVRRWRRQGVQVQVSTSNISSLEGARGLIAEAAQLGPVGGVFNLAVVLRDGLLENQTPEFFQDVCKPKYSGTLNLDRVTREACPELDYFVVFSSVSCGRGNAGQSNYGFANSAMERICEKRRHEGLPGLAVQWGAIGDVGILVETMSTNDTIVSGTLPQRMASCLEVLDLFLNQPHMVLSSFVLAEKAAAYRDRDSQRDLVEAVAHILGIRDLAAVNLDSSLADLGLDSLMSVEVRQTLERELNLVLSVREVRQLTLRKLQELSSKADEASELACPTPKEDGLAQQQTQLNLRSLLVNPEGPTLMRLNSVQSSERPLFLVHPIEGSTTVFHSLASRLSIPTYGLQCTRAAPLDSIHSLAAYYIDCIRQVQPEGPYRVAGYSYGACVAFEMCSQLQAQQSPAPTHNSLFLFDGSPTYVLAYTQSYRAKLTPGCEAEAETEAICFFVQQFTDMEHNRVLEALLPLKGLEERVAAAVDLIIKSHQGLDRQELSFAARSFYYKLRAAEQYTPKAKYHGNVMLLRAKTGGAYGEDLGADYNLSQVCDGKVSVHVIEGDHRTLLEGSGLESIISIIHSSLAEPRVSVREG

Caspase-3 = molecular target: T3, Caspase-3 (Homo sapiens, UniProt P42574); type: functional;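 note: Dose-response selectivity test against caspase-3 for candidate inhibitors of sentrin-specific proteases (SENPs)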
T3 sequence (P42574 whole entry): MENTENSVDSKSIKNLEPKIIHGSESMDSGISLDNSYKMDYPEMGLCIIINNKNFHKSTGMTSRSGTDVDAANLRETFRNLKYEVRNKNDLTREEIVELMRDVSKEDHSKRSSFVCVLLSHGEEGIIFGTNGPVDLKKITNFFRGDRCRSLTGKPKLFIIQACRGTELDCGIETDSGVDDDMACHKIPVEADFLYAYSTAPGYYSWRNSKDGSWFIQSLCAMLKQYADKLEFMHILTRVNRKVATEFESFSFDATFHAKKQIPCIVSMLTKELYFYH

[8] = molecular target: T4, Sentrin-specific protease 6 (Homo sapiens, UniProt Q9GZR1); type: functional;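 note: Luminescence-based dose-response confirmatory assay of SENP6 inhibition, following up an ultra-high-throughput screen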
T4 sequence (Q9GZR1 whole entry): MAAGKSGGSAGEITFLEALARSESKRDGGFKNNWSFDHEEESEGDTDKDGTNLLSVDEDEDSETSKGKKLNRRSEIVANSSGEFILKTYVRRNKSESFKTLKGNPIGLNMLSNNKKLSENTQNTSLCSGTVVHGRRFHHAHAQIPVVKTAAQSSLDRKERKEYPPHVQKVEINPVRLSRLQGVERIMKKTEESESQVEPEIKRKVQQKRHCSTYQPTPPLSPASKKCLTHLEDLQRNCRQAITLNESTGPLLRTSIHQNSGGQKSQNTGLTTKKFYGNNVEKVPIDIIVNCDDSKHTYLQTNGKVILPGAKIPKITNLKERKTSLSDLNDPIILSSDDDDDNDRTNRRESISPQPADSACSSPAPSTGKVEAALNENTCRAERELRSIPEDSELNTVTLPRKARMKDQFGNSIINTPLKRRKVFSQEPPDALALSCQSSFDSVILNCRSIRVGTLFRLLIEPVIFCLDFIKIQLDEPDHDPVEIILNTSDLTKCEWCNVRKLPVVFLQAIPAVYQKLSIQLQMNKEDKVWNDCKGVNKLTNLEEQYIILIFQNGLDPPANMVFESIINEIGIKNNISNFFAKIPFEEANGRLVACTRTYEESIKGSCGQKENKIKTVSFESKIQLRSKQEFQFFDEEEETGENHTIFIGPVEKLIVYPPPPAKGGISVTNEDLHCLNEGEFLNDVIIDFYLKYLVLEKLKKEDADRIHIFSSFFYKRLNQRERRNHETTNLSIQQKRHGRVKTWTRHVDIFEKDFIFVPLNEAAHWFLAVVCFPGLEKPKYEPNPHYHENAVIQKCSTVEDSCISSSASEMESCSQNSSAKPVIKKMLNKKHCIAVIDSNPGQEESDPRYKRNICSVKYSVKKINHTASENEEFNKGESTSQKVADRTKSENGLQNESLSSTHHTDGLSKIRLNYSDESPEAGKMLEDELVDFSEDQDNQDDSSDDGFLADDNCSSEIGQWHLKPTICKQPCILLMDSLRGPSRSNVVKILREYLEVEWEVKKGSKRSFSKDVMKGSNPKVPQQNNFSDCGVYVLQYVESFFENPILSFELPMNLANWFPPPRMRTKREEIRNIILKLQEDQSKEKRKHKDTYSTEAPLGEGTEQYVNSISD

[9] = Luminescence Cell-Based Dose Response to Identify Activators of Luciferase Translation or Activity in H4-C Neuroglioblastoma Cells. [Related pubchem assays: 1829 (Project Summary), 1814 (Primary HTS)]; type: functional
Fatty acid synthase [10] = molecular target: T2, Fatty acid synthase; test: FAS thioesterase domain inhibitors, dose response, biochemical, endpoint fluorescence intensity, uHTS hits (AID 624327); type: functional;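 note: fluorescence from hydrolysis of an O-methyl fluorescein acyl ester substrate by the enzyme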
[11] = system: Streptococcus sp. 'group A'; test: growth inhibition of control SK(-) GAS strain, dose response, counter-screen for streptokinase expression inhibitor project, luminescence, kanamycin, BacTiterGlo, confirmation (AID 1900); type: functional, organism-based
[12] = Luminescence Cell-Based Dose Confirmation to Identify Activators of 5'UTR Stem-Loop Driven Alpha-Synuclein mRNA Translation in H4 Neuroglioblastoma Cells. [Related pubchem assays: 1829 (Project Summary), 1814 (Primary HTS)]; type: functional
[13] = molecular target: T5, Sentrin-specific protease 8 (Homo sapiens, UniProt Q96LD8); type: functional;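 note: luminescence read-out of SENP8 inhibition, dose-response confirmation following an ultra-high-throughput screen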
T5 sequence (Q96LD8 whole entry): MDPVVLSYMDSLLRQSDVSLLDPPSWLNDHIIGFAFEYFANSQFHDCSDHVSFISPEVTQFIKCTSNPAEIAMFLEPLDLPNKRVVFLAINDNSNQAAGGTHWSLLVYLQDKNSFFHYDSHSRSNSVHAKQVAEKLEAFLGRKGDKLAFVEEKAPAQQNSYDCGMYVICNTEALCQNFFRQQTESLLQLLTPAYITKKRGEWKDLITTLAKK

Cytochrome P450 2C19 = Cytochrome P450 2C19 (Homo sapiens, UniProt P33261); test: Cytochrome panel assay with activity outcomes. Panel member name: p450-cyp2c19 Compounds with AC50 equal or less than 10 uM are considered active; type: functional; settings: read-out: AC50
Chain of Cytochrome P450 2C19 (P33261 whole entry): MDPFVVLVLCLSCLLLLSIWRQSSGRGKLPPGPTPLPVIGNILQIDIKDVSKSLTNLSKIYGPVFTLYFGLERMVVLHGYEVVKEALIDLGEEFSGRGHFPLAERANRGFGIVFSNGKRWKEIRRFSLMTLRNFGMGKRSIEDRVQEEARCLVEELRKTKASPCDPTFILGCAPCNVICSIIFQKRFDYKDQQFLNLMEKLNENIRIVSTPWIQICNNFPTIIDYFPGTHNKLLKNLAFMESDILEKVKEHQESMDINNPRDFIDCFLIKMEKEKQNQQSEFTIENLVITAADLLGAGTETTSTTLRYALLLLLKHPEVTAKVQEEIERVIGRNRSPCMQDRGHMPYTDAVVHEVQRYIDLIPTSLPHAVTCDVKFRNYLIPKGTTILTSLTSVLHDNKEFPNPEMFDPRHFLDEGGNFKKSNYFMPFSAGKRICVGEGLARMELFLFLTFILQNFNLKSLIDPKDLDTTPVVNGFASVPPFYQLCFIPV

Cytochrome P450 1A2 = molecular target: T6, Cytochrome P450 1A2 (Homo sapiens, UniProt P05177);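 note: PubChem cytochrome P450 panel assay, CYP1A2 panel member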
T6 sequence (P05177 whole entry): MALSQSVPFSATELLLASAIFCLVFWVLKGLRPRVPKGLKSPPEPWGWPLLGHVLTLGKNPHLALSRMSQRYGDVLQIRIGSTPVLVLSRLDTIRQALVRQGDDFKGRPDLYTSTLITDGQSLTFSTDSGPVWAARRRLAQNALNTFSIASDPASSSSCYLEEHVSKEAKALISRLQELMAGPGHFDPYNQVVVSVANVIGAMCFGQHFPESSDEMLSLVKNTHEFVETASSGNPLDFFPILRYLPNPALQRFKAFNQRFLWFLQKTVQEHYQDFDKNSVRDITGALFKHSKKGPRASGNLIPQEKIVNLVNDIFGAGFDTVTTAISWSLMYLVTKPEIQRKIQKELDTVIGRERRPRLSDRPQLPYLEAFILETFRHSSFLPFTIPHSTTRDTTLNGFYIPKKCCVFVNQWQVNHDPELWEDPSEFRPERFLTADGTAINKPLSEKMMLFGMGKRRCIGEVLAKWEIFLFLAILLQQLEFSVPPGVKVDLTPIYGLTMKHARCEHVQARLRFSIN

Chain of Cytochrome P450 2C9 (P11712 whole entry): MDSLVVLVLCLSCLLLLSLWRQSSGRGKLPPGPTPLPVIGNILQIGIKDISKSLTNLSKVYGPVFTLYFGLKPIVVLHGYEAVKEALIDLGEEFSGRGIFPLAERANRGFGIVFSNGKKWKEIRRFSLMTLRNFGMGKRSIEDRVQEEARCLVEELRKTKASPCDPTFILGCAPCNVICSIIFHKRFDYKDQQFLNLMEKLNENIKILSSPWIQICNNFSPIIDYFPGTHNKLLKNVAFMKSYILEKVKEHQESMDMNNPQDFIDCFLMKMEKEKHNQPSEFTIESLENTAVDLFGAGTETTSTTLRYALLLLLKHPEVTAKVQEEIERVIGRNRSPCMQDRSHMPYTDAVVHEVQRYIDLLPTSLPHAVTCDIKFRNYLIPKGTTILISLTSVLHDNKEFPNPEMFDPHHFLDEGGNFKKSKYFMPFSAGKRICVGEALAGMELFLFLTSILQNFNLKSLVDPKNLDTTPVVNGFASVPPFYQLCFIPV
Chain of Cytochrome P450 2D6 (P10635 whole entry): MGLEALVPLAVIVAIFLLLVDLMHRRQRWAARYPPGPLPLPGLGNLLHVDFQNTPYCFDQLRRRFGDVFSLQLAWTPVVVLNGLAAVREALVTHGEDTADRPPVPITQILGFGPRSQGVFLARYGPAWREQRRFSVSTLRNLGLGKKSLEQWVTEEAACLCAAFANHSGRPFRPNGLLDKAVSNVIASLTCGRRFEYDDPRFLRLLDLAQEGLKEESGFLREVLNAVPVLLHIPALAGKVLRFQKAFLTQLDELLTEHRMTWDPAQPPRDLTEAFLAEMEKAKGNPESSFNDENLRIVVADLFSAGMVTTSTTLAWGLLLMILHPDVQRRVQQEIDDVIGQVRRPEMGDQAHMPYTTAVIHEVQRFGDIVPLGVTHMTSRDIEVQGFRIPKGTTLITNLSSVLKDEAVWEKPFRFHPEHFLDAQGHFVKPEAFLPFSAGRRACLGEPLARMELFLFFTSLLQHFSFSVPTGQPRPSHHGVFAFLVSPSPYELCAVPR

Cn1c(SCC(=O)N2CCN(S(=O)(=O)c3ccccc3)CC2)nc2ccccc21
inconclusive: AC50 (Cytochrome P450 2C9) | AC50 (Cytochrome P450 2D6) 14.1 µM

Cc1nc2c(-c3ccc(Cl)cc3)c(C)nn2c(O)c1Cc1ccccc1
active: AC50 (HEK293) 9.26 µM | EC50 [1] 0.938 µM | EC50 [2] 2.97 µM | AC50 (INS1) 2.5 µM

O=C(CSC1=NNC(c2ccccn2)S1)Nc1cccc(Cl)c1 (centres undefined)
inactive: IC50 (H9c2) > 79 µM

Cc1cccc(NC(=O)c2[nH]cnc2C(=O)NCCCNC(=O)c2nc[nH]c2C(=O)Nc2cccc(C)c2)c1
active: IC50 (H9c2) 26.2 µM | AC50 [3] 10.6 µM

COc1cc2ccnc(C=O)c2cc1OC
active: IC50 (H9c2) 14.5 µM | CC50 (Vero) > 25 µM

CCN(CC)CCOC(=O)c1cc(Cl)c(N)cc1OC
inconclusive: AC50 (Cytochrome P450 2C9) | AC50 (Cytochrome P450 3A4) 31.6 µM

O=C(O)c1ccc(N/N=C/c2ccc(-c3cc(Cl)ccc3Cl)o2)cc1
active: EC50 [4] 0.384 µM | EC50 (H4) < 0.1 µM | EC50 (Streptococcus) 2.61 µM | IC50 [6] 2.17 µM | IC50 (Fatty acid synthase [7]) 4.39 µM | EC50 [9] 0.482 µM | IC50 (Fatty acid synthase [10]) 3.61 µM | EC50 [11] 2.44 µM | EC50 [12] 0.121 µM
inactive: IC50 [5] > 100 µM | IC50 (Caspase-3) > 100 µM | IC50 [8] > 100 µM | IC50 [13] > 100 µM

C/C(CC(=O)NCc1ccco1)=N\NC(=O)Cc1cccc2ccccc12
inconclusive: AC50 (Cytochrome P450 2C9) | AC50 (Cytochrome P450 2C19) 25.1 µM | AC50 (Cytochrome P450 1A2) 12.6 µM
